The source made the active and inactive calls. No cut-off for these calls is given here.
Legend:
[1] = system: A2780; assay: Potentiation of olaparib sensitivity in human A2780 cells assessed as induction of DNA damage response by measuring increase in tail moment at 10 uM measured after 48 hrs in presence of olaparib by alkaline comet assay; type: functional, cell-based
[2] = system: A2780; assay: Potentiation of olaparib sensitivity in human A2780 cells assessed as downregulation of EMT signaling by measuring downregulation of vimentin protein expression at 10 uM in presence of olaparib by western blot analysis; type: functional, cell-based
[3] = system: A2780; assay: Potentiation of olaparib sensitivity in human A2780 cells transfected with shFLH1-2 RNA assessed as downregulation of EMT signaling by measuring vimentin protein expression at 10 uM in presence of olaparib by western blot analysis; type: functional, cell-based
[4] = system: SK-OV-3; assay: Downregulation of EMT signalling in human SK-OV-3 cells transfected with shFHL1-2 RNA assessed as E-cadherin protein expression at 10 uM by western blot analysis; type: functional, cell-based
[5] = system: A2780; assay: Potentiation of olaparib-induced antitumor activity against shNC RNA-transfected human A2780 cells xenografted in BALB/c mouse assessed as decrease in lung metastatic nodules at 15 mg/kg, ip co-administered with olaparib every other day from day 6 of tumor cell inoculation and measured on day 30 post-tumor cell inoculation by H and E staining based bright field microscopic analysis; type: functional, organism-based; details: time 24.0 day
[6] = system: SK-OV-3; assay: Potentiation of olaparib sensitivity in human SK-OV-3 cells transfected with shFLH1-1 RNA assessed as downregulation of EMT signaling by measuring vimentin protein expression at 10 uM in presence of olaparib by western blot analysis; type: functional, cell-based
[7] = system: SK-OV-3; assay: Downregulation of EMT signalling in human SK-OV-3 cells transfected with shFHL1-1 RNA assessed as vimentin protein expression at 10 uM by western blot analysis; type: functional, cell-based
[8] = system: A2780; assay: Inhibition of cell migration in human A2780 cells at 10 uM measured after 24 to 48 hrs by wound healing assay; type: functional, cell-based; details: time 24-48 hrs
[9] = system: A2780; assay: Increase in FHL1 protein stability in human A2780 cells at 10 uM measured after 6 to 24 hrs in presence of cycloheximide by CHX chase assay based western blot analysis; type: functional, cell-based; details: time 6-24 hrs
[10] = system: A2780; assay: Downregulation of EMT signalling in human A2780 cells transfected with shFHL1-2 RNA assessed as vimentin protein expression at 10 uM by western blot analysis; type: functional, cell-based
[11] = system: A2780; assay: Potentiation of olaparib-induced antitumor activity against shFHL1-1 RNA-transfected human A2780 cells xenografted in BALB/c mouse assessed as decrease in lung metastatic nodules at 15 mg/kg, ip co-administered with olaparib every other day from day 6 of tumor cell inoculation and measured on day 30 post-tumor cell inoculation by H and E staining based bright field microscopic analysis; type: functional, organism-based; details: time 24.0 day
[12] = system: Mus musculus; assay: Potentiation of olaparib sensitivity in BALB/c mouse xenografted with shFHL1-1 RNA-transfected human A2780 cells assessed as downregulation of N-cadherin protein expression in tumor at 15 mg/kg, ip co-administered with olaparib for 2 weeks by western blot analysis; type: functional, organism-based
[13] = system: SK-OV-3; assay: Synergistic antiproliferative activity against human SK-OV-3 cells assessed as combination index for reduction of cell viability in presence of olaparib by CCK8 assay; type: functional
[14] = system: A2780; assay: Potentiation of olaparib sensitivity in human A2780 cells transfected with shFLH1-1 RNA assessed as downregulation of EMT signaling by measuring vimentin protein expression at 10 uM in presence of olaparib by western blot analysis; type: functional, cell-based
[15] = system: A2780; assay: Potentiation of olaparib sensitivity in human A2780 cells transfected with shFHL1-2 RNA assessed as inhibition of cell invasion at 10 uM measured after 48 hrs in presence of olaparib by Transwell assay; type: functional, cell-based
[16] = system: A2780; assay: Potentiation of olaparib sensitivity in human A2780 cells transfected with shFHL1-1 RNA assessed as inhibition of cell migration at 10 uM measured after 24 to 48 hrs in presence of olaparib by wound healing assay; type: functional, cell-based; details: time 24-48 hrs
[17] = system: SK-OV-3; assay: Potentiation of olaparib sensitivity in human SK-OV-3 cells assessed as downregulation of EMT signaling by measuring downregulation of N-cadherin protein expression at 10 uM in presence of olaparib by western blot analysis; type: functional, cell-based
[18] = system: A2780; assay: Potentiation of olaparib-induced antitumor activity against human A2780 cells xenografted in BALB/c mouse assessed as decrease in tumor weight at 15 mg/kg, ip co-administered with olaparib for 2 weeks; type: functional, organism-based
[19] = Toxicity in BALB/c mouse xenografted with human A2780 cells assessed as decrease in body weight at 30 mg/kg, ip administered every other day and measured on day 6; type: organism-based; details: in vivo, 144 h, time 6 day
[20] = system: A2780; assay: Potentiation of olaparib-induced antitumor activity against human A2780 cells xenografted in BALB/c mouse assessed as decrease in tumor volume at 15 mg/kg, ip co-administered with olaparib for 2 weeks; type: functional, organism-based
[21] = system: A2780; assay: Potentiation of olaparib sensitivity in human A2780 cells assessed as inhibition of cell viability at 10 uM measured after 5 days in presence of olaparib by CCK8 assay; type: functional, cell-based; details: time 5.0 day
[22] = system: SK-OV-3; assay: Antiproliferative activity against human SK-OV-3 cells assessed as inhibition of cell viability measured after 48 hrs by CCK8 assay; type: functional, cell-based; details: SK-OV-3, 48 h
[23] = system: SK-OV-3; assay: Inhibition of cell invasion in human SK-OV-3 cells at 10 uM measured after 48 hrs by Transwell assay; type: functional, cell-based
[24] = system: A2780; assay: Antitumor activity against human A2780 cells xenografted in BALB/c mouse assessed as decrease in tumor growth at 5 to 15 mg/kg, ip administered every other day for 2 weeks; type: functional, organism-based; details: dose 5-15 mg/kg
[25] = system: Mus musculus; assay: Potentiation of olaparib sensitivity in BALB/c mouse xenografted with shNC RNA-transfected human A2780 cells assessed as increase in FHL1 protein expression in tumor at 15 mg/kg, ip co-administered with olaparib for 2 weeks by immunohistochemistry; type: functional, organism-based
[26] = system: A2780; assay: Synergistic antiproliferative activity against human A2780 cells assessed as combination index for reduction of cell viability in presence of olaparib by CCK8 assay; type: functional
[27] = system: A2780; assay: Potentiation of olaparib sensitivity in human A2780 cells assessed as downregulation of EMT signaling by measuring upregulation of E-cadherin protein expression at 10 uM in presence of olaparib by western blot analysis; type: functional, cell-based
[28] = system: A2780; assay: Potentiation of olaparib sensitivity in human A2780 cells assessed as inhibition of cell migration at 10 uM measured after 24 to 48 hrs in presence of olaparib by wound healing assay; type: functional, cell-based; details: time 24-48 hrs
[29] = system: SK-OV-3; assay: Potentiation of olaparib sensitivity in human SK-OV-3 cells transfected with shFLH1-2 RNA assessed as downregulation of EMT signaling by measuring N-cadherin protein expression at 10 uM in presence of olaparib by western blot analysis; type: functional, cell-based
[30] = system: Mus musculus; assay: Potentiation of olaparib sensitivity in BALB/c mouse xenografted with shFHL1-1 RNA-transfected human A2780 cells assessed as downregulation of vimentin protein expression in tumor at 15 mg/kg, ip co-administered with olaparib for 2 weeks by western blot analysis; type: functional, organism-based
[31] = system: SK-OV-3; assay: Potentiation of olaparib sensitivity in human SK-OV-3 cells transfected with shFLH1-2 RNA assessed as downregulation of EMT signaling by measuring E-cadherin protein expression at 10 uM in presence of olaparib by western blot analysis; type: functional, cell-based

SMILES: CC[C@]12C=CCN3CC[C@]4(C(=C(C(=O)OC)C1)Nc1ccccc14)[C@@H]32 [TABERSONINE]
- Activity [1]: Active
- Activity [2]: Active
- Activity [3]: inactive
- inhibition [4]: inactive
- Activity [5]: Active
- Activity [6]: inactive
- inhibition [7]: inactive
- inhibition [8]: Active
- Activity [9]: Active
- inhibition [10]: inactive
- Activity [11]: inactive
- Activity [12]: inactive
- CI [13]: <1
- Activity [14]: inactive
- Activity [15]: inactive
- Activity [16]: inactive
- Activity [17]: Active
- Activity [18]: Active
- Activity [19]: Toxic
- Activity [20]: Active
- Activity [21]: Active
- IC50 [22]: 25 µM
- inhibition [23]: Active
- Activity [24]: Active
- Activity [25]: Active
- CI [26]: <1
- Activity [27]: Active
- Activity [28]: Active
- Activity [29]: inactive
- Activity [30]: inactive
- Activity [31]: inactive

Reference: ChEMBL document CHEMBL5385929, “Tabersonine Enhances Olaparib Sensitivity through FHL1-Mediated Epithelial-Mesenchymal Transition in an Ovarian Tumor” (J Nat Prod, 2024)
